Among the data in patent publication US20260042764A1, “COMPOSITIONS AND METHODS FOR INHIBITION OF KRAS” (TheRas, Inc., priority 2022, published 2026) are IC50 values, retold here.

A value given as a limit tells only on which side of the number the result lay.

Assay [1] concerns the target T1, Avi-KRAS G12D (1-169) GppNHp/RAF1 RBD-3xFLAG (52-151) (Homo sapiens, UniProt P01116, G12D).
T1 construct: Avi-KRAS G12D (1-169)
Kind of assay: Raf1-KRAS G12D-GppNHP disruption HTRF assay (Biological Example 1). The format is binding. The following applies: KRAS G12D-GppNHp/RAF1 RBD HTRF. In a few lines: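 Measured with a KRAS/RAF1 HTRF assay at pH 7.5 in 10% DMSO, with two 1 h room-temperature incubations with shaking.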
Background: Time-resolved FRET reads energy transfer from a long-lived donor to a nearby acceptor.

Assay [2] has as its system SW620 cells (KRAS G12V). Kind of assay: Cell-based pERK HTRF assay in SW620 cell (Biological Example 4). As to conditions: Homo sapiens, SW-620, SW620 (KRAS G12V) cells. Summed up:
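This assay measures inhibition of ERK phosphorylation downstream of KRAS G12V in intact SW620 cells. Compounds are applied for 4 h over nine half-log concentrations starting at 1 μM, and pERK is quantified by HTRF.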

Assay [3] concerns the target T2, Avi-KRAS G12D (2-169) GTP/RAF1 RBD-3xFLAG (51-131) (Homo sapiens, UniProt P01116, G12D).
T2 construct: Avi-KRAS G12D (2-169)
Kind of assay: Raf1-KRAS G12D-GTP disruption HTRF assay (Biological Example 3). The format is binding. The following applies: KRAS G12D, GTP-loaded. In a few lines:
(§1)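 Compounds were titrated 10-point, 3-fold from 30 μM against preformed KRAS-GTP:RAF1 RBD (51-131) complexes at 50 nM, using KRAS 2-169 as WT, G12C, G12D or G12V. After 1 h at room temperature in Tris pH 7.5 buffer with MgCl2 and 10% DMSO, time-resolved fluorescence was read. Results are percent activity versus DMSO.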

The target in assay [4] is T3, Avi-KRAS G12C (2-169) GTP/RAF1 RBD-3xFLAG (51-131) (Homo sapiens, UniProt P01116, G12C).
T3 construct: Avi-KRAS G12C (2-169)
T3 sequence (P01116 2-169 isoform P01116-2 G12C): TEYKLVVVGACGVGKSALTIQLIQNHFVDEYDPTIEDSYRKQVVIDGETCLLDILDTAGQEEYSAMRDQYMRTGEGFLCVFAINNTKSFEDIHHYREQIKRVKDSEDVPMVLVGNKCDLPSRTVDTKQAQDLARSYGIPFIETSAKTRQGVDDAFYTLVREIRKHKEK
The experiment in a line: Raf1-KRAS G12C-GTP disruption HTRF assay (Biological Example 3). The format is binding. The following applies: KRAS G12C, GTP-loaded. In a few lines:
as §1

Assay [5] addresses T4, Avi-KRAS WT (2-169) GTP/RAF1 RBD-3xFLAG (51-131) (Homo sapiens, UniProt P01116).
T4 construct: Avi-KRAS WT (2-169)
The experiment in a line: Raf1-KRAS WT-GTP disruption HTRF assay (Biological Example 3). The format is binding. As to conditions: KRAS WT, GTP-loaded. Summed up: as §1

T4 sequence (P01116 2-169 isoform P01116-2): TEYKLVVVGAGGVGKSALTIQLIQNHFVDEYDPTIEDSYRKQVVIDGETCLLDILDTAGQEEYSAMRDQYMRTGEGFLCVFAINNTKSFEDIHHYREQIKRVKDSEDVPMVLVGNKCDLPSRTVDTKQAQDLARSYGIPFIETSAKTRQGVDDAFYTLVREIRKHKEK
T2 sequence (P01116 2-169 isoform P01116-2 G12D): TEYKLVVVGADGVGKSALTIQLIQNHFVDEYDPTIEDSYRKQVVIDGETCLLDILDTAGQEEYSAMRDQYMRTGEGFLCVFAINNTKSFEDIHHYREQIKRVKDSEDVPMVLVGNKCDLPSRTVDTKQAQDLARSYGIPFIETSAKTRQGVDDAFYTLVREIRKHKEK
T1 sequence (P01116 1-169 isoform P01116-2 G12D): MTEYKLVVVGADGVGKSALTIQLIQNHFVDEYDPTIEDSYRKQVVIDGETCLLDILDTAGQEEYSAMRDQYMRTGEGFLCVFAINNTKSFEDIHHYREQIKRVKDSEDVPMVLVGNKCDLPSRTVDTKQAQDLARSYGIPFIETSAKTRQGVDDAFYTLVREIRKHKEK

The IC50 is the concentration that inhibits the measured activity by half. Low values mean inhibition by little substance, high ones a need for much substance. Take `CCN(c1nc(OC[C@@]23CCCN2C[C@H](F)C3)nc2c(F)c(-c3ccc(F)c4sc(N)c(C#N)c34)c(C(F)(F)F)cc12)[C@H]1C[C@H]2COC(=O)N2C1` (atropisomer, axis not shown; (aS)) [Compound 518, 2-amino-4-((S)-4-(ethyl((6S,7aS)-3-oxotetrahydro-1H,3H-pyrrolo[1,2-c]oxazol-6-yl)amino)-8-fluoro-2-(((2R,7aS)-2-fluorotetrahydro-1H-pyrrolizin-7a(5H)-yl)methoxy)-6-(trifluoromethyl)quinazolin-7-yl)-7-fluorobenzo[b]thiophene-3-carbonitrile]: the IC50 in assay [1] was below 100 nM; in assay [2], below 100 nM; in assay [2] (pERK HTRF), below 100 nM; in assay [3] it was at most 100 nM; in assay [4] it was at most 100 nM; in assay [5], at most 100 nM.

For `CCN(c1nc(OC[C@@]23CCCN2C[C@H](F)C3)nc2c(F)c(-c3ccc(F)c4sc(N)c(C#N)c34)c(C(F)(F)F)cc12)[C@H]1C[C@H]2CN(C)C(=O)N2C1` (atropisomer, axis not shown; (aS)) [Compound 543, 2-amino-4-((S)-4-(ethyl((6S,7aS)-2-methyl-3-oxohexahydro-1H-pyrrolo[1,2-c]imidazol-6-yl)amino)-8-fluoro-2-(((2R,7aS)-2-fluorotetrahydro-1H-pyrrolizin-7a(5H)-yl)methoxy)-6-(trifluoromethyl)quinazolin-7-yl)-7-fluorobenzo[b]thiophene-3-carbonitrile], the IC50 in assay [1] was below 100 nM; in assay [2] it was below 100 nM; in assay [2] (pERK HTRF), below 100 nM; in assay [3] it was at most 100 nM; in assay [4], at most 100 nM; in assay [5], at most 100 nM.

Consider `CCN(c1nc(OC[C@@]23CCCN2C[C@H](F)C3)nc2c(F)c(-c3ccc(F)c4sc(N)c(C#N)c34)c(C(F)(F)F)cc12)[C@H]1CCN(C(=O)C(C)C)C1` (single isomer, unassigned) [Compound 469], for which the IC50 was below 100 nM in assay [1]; below 100 nM in assay [2]; below 100 nM in assay [2] (pERK HTRF); at most 100 nM in assay [3]; at most 100 nM in assay [4]; at most 100 nM in assay [5].

Turning to `Cc1c(C(=O)N(C)C)nn2c1CN(c1nc(OC[C@@]34CCCN3C[C@H](F)C4)nc3c(F)c(-c4ccc(F)c5sc(N)c(C#N)c45)c(C(F)(F)F)cc13)CC2` [Compound 501], the IC50 was below 100 nM in assay [1]; below 100 nM in assay [2]; below 100 nM in assay [2] (pERK HTRF); 100 to 1000 nM in assay [3]; 100 to 1000 nM in assay [4]; 100 to 1000 nM in assay [5].

On to `CCN(c1nc(OC[C@@]23CCCN2C[C@H](F)C3)nc2c(F)c(-c3ccc(F)c4sc(N)c(C#N)c34)c(C(F)(F)F)cc12)[C@@H]1C[C@@H]2CCC(=O)N2C1` [Compound 511], for which the IC50 is 100 to 1000 nM in assay [1]; below 100 nM in assay [2]; below 100 nM in assay [2] (pERK HTRF); 1000 to 10000 nM in assay [3]; 1000 to 10000 nM in assay [4]; 100 to 1000 nM in assay [5].

Turning to `CCN(c1nc(OC[C@@]23CCCN2C[C@H](F)C3)nc2c(F)c(-c3ccc(F)c4sc(N)c(C#N)c34)c(C(F)(F)F)cc12)C1C[C@@H](C)N(C(=O)C2CC2)C1` (stereo partly drawn) [Compound 516], the IC50 was below 100 nM in assay [1]; below 100 nM in assay [2]; below 100 nM in assay [2] (pERK HTRF); 100 to 1000 nM in assay [3]; 100 to 1000 nM in assay [4]; 100 to 1000 nM in assay [5].

For the molecule `CN(C)C(=O)c1nn2c(c1Cl)CN(c1nc(OC[C@@]34CCCN3C[C@H](F)C4)nc3c(F)c(-c4ccc(F)c5sc(N)c(C#N)c45)c(C(F)(F)F)cc13)CC2` [Compound 517], the IC50 in assay [1] was below 100 nM; in assay [2] it was below 100 nM; in assay [2] (pERK HTRF) it was below 100 nM; in assay [3], 100 to 1000 nM; in assay [4] it was 100 to 1000 nM; in assay [5] it was 100 to 1000 nM.

Take `CCN(c1nc(OC[C@@]23CCCN2C[C@H](F)C3)nc2c(F)c(-c3ccc(F)c4sc(N)c(C#N)c34)c(C(F)(F)F)cc12)[C@@H]1CC(=O)N(C)C1` [Compound 520]: the IC50 in assay [1] was 100 to 1000 nM; in assay [2] it was below 100 nM; in assay [2] (pERK HTRF) it was below 100 nM; in assay [3], 100 to 1000 nM; in assay [4], 100 to 1000 nM; in assay [5], 100 to 1000 nM.

Take `CCN1C[C@@H](N(CC)c2nc(OC[C@@]34CCCN3C[C@H](F)C4)nc3c(F)c(-c4ccc(F)c5sc(N)c(C#N)c45)c(C(F)(F)F)cc23)CC1=O` [Compound 529, 2-amino-4-(4-(ethyl((S)-1-ethyl-5-oxopyrrolidin-3-yl)amino)-8-fluoro-2-(((2R,7aS)-2-fluorotetrahydro-1H-pyrrolizin-7a(5H)-yl)methoxy)-6-(trifluoromethyl)quinazolin-7-yl)-7-fluorobenzo[b]thiophene-3-carbonitrile]: the IC50 was below 100 nM in assay [1]; below 100 nM in assay [2]; below 100 nM in assay [2] (pERK HTRF); at most 100 nM in assay [3]; at most 100 nM in assay [4]; at most 100 nM in assay [5].

Regarding `CCN(c1nc(OC[C@@]23CCCN2C[C@H](F)C3)nc2c(F)c(-c3ccc(F)c4sc(N)c(C#N)c34)c(C(F)(F)F)cc12)[C@@H]1CC(=O)N(C2CC2)C1` [Compound 537], the IC50 in assay [1] was below 100 nM; in assay [2], below 100 nM; in assay [2] (pERK HTRF), below 100 nM; in assay [3], at most 100 nM; in assay [4] it was 100 to 1000 nM; in assay [5], 100 to 1000 nM.
